{"source": "patent US10292949B2", "about": "“Pharmaceutical composition comprising rimeporide for treating diseases associated with insulin resistance and β-cell dysfunction” (Merck Patent GmbH, priority 2008, dated 2019)", "format_in_all_cases": "in vivo, rat", "key": {"obese Zucker fa/fa rats [1]": {"test_system": "obese Zucker fa/fa rats", "assay": "Pharmacological Study Report II: 2H-glucose disposal test (2H-GDT) on Days 0, 14 and 28", "experimental": "(§1) Thirty-six obese Zucker fa/fa and six lean Zucker fa/? male rats obtained from Charles River, were housed under normal vivarium conditions on a 12 hour light/dark cycle. The rats were kept two to a cage with food and water available ad lib, except during the weekly, 4 hour fasts. Water continued to be available during these fasts.\n(§2) Compound A corresponds to Cariporide. Compound B corresponds to 2-Methyl-4,5-di-(methylsulfonyl)-benzoyl-guanidine hydrochloride hydrate. Compounds A and B were supplied in powder form by Merck Serono. Drugs were incorporated into a pelleted diet (LabDiet, 5001) by Research Diets, Inc (New Brunswick, N.J.) at concentrations of 0.44 g/kg or 0.88 g/kg of diet to yield approximate doses of 40 or 80 mg/kg. The concentration was calculated based on the assumption that a 300 g rat would eat about 30 g/d of chow. The same chow, but without drug, was fed to rats of both the lean and fa/fa control group animals.\n(§3) • 1. ZF rats (fa/fa) (n=6) chow without drug • 2. ZF rats (fa/fa) (n=6) compound A (40 mg/kg/day) • 3. ZF rats (fa/fa) (n=6) compound A (80 mg/kg/day) • 4. ZF rats (fa/fa) (n=6) compound B (40 mg/kg/day) • 5. ZF rats (fa/fa) (n=6) compound B (80 mg/kg/day) • 6. lean Zucker rats (fa/?) (n=6) chow without drug Dosing Regime\nInsulin sensitivity (SI) and pancreatic compensation (PC) were measured by conducting ^2H-Glucose disposal test on Days 0, 14 and 28.\nTime −4 h: Before the fast was begun on the morning of the GDT, a blood sample was taken to determine the random glucose level (see above). An additional blood sample was collected to determine the baseline ^2H2O and ^18O enrichments. The rats were weighed and the 4 h fast was begun. Water was available during the fast.\nTime −3 h: One 1 hour after the start of the fast, 1.75 mg/g body weight of 10% H2^18O was administered by oral gavage (^2H2O-free H2O^18 water; 10% ^18O atom from Spectra; Cat. No 51350).\nTime 0: 4 hours after the start of the fast, the blood glucose and insulin levels were determined. Rats received 4 ml/kg of a 50% glucose solution (comprised of 25% [6,6-^2H2] glucose and 25% D-glucose) by oral gavage.\nAt times 15, 30, 60 and 90 min post glucose challenge, blood glucose concentrations were again determined by a glucometer reading from tail vein blood. Additional blood samples were collected for insulin determinations. At 60 and 90 min post glucose challenge, whole blood was collected to determine the ^2H2O and H2^18O enrichments. All blood samples were centrifuged and the plasma was stored at −20° C. until assayed. The deuterium and oxygen-18 isotope enrichments of body water were determined by IRIS analysis of the water distillate of the plasma samples.\n^2H2O enrichment was converted to mmol by multiplying enrichment (^2H2O APE) by the total body water pool size and dividing by 20 (molecular weight of ^2H2O). Total ^2H2O produced was calculated as the percent of the [6,6-^2H2] glucose load administered. Plasma insulin and glucose areas under the curve (AUC 60 min) were calculated using the trapezoidal method (GraphPad Prism).\nTwo parameters were calculated from the ^2H-GDT: • 1. Insulin sensitivity index (SI)=^2H2O production (% load)/(glucose AUC×insulin AUC). • 2. Pancreatic compensation (PC)=the absolute ^2H2O production as a percent of total [6,6-^2H2] glucose load (% load)/the integrated glucose response (glucose AUC; to correct for insulin-independent utilization). Statistics\nOverall results of glucose and insulin measures were analyzed by a 2 way repeated measures ANOVA using drug and time (repeated) as factors. The primary analysis was followed by Bonferroni posttests to compare all groups. Data are considered significant at p<0.05. AUC 60 min values for glucose and insulin were analyzed by 1 way ANOVA followed by Tukey's comparison of all groups."}, "obese Zucker fa/fa rats [2]": {"test_system": "obese Zucker fa/fa rats", "assay": "Pharmacological Study Report II: random and fasting (4 h) blood glucose and plasma insulin levels", "details": "for Baseline Insulin (fasting) / Change in Insulin (fasting) / Week 4 Insulin (fasting): Mean ± SD; for Change in Insulin (fasting): change over the 4 week treatment period; for Week 4 Insulin (fasting): week 4 of treatment", "experimental": "as §1, §2\n(§4) One week prior to the start of the study, all rats were weighed. After a 4 hour fast, a blood sample was obtained for the determination of blood glucose, insulin, and glycosylated hemoglobin levels (HbA1c). Animals were then sorted on the basis of these parameters into the groups listed below. Rats were eight weeks of age at the onset of treatment.\nas §3\n(§5) Treatment appropriate chow was continuously available for 4 weeks except during scheduled 4 h fasts conducted once per week.\nBoth random and fasting (4 h) blood glucose levels were determined using a hand-held glucometer (OneTouch Ultra, Lifescan, Inc. Milapitas, Calif.) on blood obtained from tail capillary samples. Plasma insulin levels were determined by a rat specific ELISA (Ultra Sensitive Rat Insulin ELISA Kit, Crystal Chem, Inc., Chicago, Ill.). The 4 h fast period started at 9 a.m. and ended after a blood draw at 1 p.m."}, "obese Zucker fa/fa rats [3]": {"test_system": "obese Zucker fa/fa rats", "assay": "Pharmacological Study Report II: HbA1c levels", "details": "Mean ± SD; for Base line HbA1c: baseline; for Change in HbA1c: change over the 4 week treatment period; for Week 4 HbA1c: week 4 of treatment", "experimental": "as §1, §2, §4, §3, §5\nHbA1c level were determined using a DCA 2000 analyzer (Bayer Healthcare LLC, Elkhart Ind.) prior to beginning the study and again at the end of the 4th week treatment period."}, "[4]": {"details": "40 and 80 mg/kg (neither dose), 4 weeks"}}}
{"smiles": "CC(C)c1ccc(C(=O)NC(=N)N)cc1S(C)(=O)=O", "note": "[Compound A, Cariporide]", "values": [{"measurement": "Glucose level at the 90 min time point of the 2H-GDT vs fa/fa vehicle", "setting": "obese Zucker fa/fa rats [1]; 40 mg/kg, 4 weeks of treatment", "value": "elevated above that of the fa/fa vehicle treated rats"}, {"measurement": "Blood glucose and insulin concentrations in response to glucose challenge (2H-GDT)", "setting": "obese Zucker fa/fa rats [1]; 4 weeks after start of treatment, 40 and 80 mg/kg", "value": "continued to have elevated"}, {"measurement": "Glucose tolerance", "setting": "obese Zucker fa/fa rats [1]; 4 weeks of treatment", "value": "did not improve"}, {"measurement": "Glucose levels (either fasting or in response to challenge)", "setting": "obese Zucker fa/fa rats [1]; [4]", "value": "Neither dose of Compound A significantly improved"}, {"measurement": "Insulin sensitivity (SI)", "setting": "obese Zucker fa/fa rats [1]; [4]", "value": "Neither dose of Compound A significantly improved"}, {"measurement": "Pancreatic compensation (PC)", "setting": "obese Zucker fa/fa rats [1]; [4]", "value": "Neither dose of Compound A significantly improved"}, {"measurement": "Glucose or insulin response to glucose challenge (2H-GDT)", "setting": "obese Zucker fa/fa rats [1]; after 2 weeks of treatment, 40 and 80 mg/kg", "value": "did not affect"}, {"measurement": "Fasting glucose concentration", "setting": "obese Zucker fa/fa rats [2]; 40 mg/kg, after 4 weeks of administration, 4 h fast", "value": "increased"}, {"measurement": "Fasting insulin relative to the fa/fa vehicle control", "setting": "obese Zucker fa/fa rats [2]; 80 mg/kg, 4th week of treatment", "value": "significantly decreased"}, {"measurement": "Baseline Insulin (fasting)", "setting": "obese Zucker fa/fa rats [2]; 40 mg/kg group", "value": "17.6 ± 5.1", "unit": "ng/mL"}, {"measurement": "Baseline Insulin (fasting)", "setting": "obese Zucker fa/fa rats [2]; 80 mg/kg group", "value": "15.9 ± 5.5", "unit": "ng/mL"}, {"measurement": "Change in Insulin (fasting)", "setting": "obese Zucker fa/fa rats [2]; 40 mg/kg", "value": "0.6 ± 9.6", "unit": "ng/mL"}, {"measurement": "Change in Insulin (fasting)", "setting": "obese Zucker fa/fa rats [2]; 80 mg/kg", "value": "-3.4 ± 8.2", "unit": "ng/mL"}, {"measurement": "Week 4 Insulin (fasting)", "setting": "obese Zucker fa/fa rats [2]; 40 mg/kg in chow", "value": "18.2 ± 11.8", "unit": "ng/mL"}, {"measurement": "Week 4 Insulin (fasting)", "setting": "obese Zucker fa/fa rats [2]; 80 mg/kg in chow", "value": "12.5 ± 7.5", "unit": "ng/mL"}, {"measurement": "Base line HbA1c", "setting": "obese Zucker fa/fa rats [3]; 40 mg/kg group", "value": "4.0 ± 0.5", "unit": "%"}, {"measurement": "Base line HbA1c", "setting": "obese Zucker fa/fa rats [3]; 80 mg/kg group", "value": "3.9 ± 0.4", "unit": "%"}, {"measurement": "Change in HbA1c", "setting": "obese Zucker fa/fa rats [3]; 40 mg/kg", "value": "0.4 ± 0.6", "unit": "%"}, {"measurement": "Change in HbA1c", "setting": "obese Zucker fa/fa rats [3]; 80 mg/kg", "value": "0.4 ± 0.9", "unit": "%"}, {"measurement": "Week 4 HbA1c", "setting": "obese Zucker fa/fa rats [3]; 40 mg/kg in chow", "value": "4.4 ± 0.2", "unit": "%"}, {"measurement": "Week 4 HbA1c", "setting": "obese Zucker fa/fa rats [3]; 80 mg/kg in chow", "value": "4.4 ± 0.52", "unit": "%"}]}
